{"source": "patent US8735387B2", "about": "“Oxazolopyrimidines as Edg-1 receptor agonists” (Sanofi, priority 2008, dated 2014)"}
{"target": "T1, human Edg-1 receptor (Homo sapiens, UniProt P21453)", "T1 construct": "expressed in transfected cells; membrane preparation", "T1 sequence (P21453 whole entry)": "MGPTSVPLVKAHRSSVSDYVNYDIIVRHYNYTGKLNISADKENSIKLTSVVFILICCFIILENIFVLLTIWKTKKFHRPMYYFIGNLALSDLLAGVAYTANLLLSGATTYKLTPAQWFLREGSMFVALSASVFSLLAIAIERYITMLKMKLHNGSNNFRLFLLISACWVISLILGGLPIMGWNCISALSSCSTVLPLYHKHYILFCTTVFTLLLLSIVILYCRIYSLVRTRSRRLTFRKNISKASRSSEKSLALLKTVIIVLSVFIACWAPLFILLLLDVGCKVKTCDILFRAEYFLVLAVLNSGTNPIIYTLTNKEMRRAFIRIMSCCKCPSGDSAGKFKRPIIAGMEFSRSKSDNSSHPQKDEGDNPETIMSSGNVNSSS", "test": "GTP-γ-S assay using human Edg-1 receptors (scintillation proximity assay, membrane preparation from CHO Flp-In cell line)", "assay_type": "biochemical", "conditions": "example compound at 10 μM; relative to 10 μM S1P; GTP-γ-S SPA, human Edg-1 membranes", "in_short": "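Scintillation proximity GTP-γ-S binding assay measuring receptor activation. Membranes prepared from a CHO Flp-In line stably overexpressing N-terminally FLAG-tagged human Edg-1.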", "units": {"% Activation (Edg-1 receptor activation in percent of the activation by 10 μM S1P)": "%"}}
{"molecule": "CCOc1nc(Cc2ccc(Cl)cc2)nc2oc(-c3cc(C)c(OCCCSc4ncn[nH]4)c(C)c3)nc12", "note": "[Example 296]", "% Activation (Edg-1 receptor activation in percent of the activation by 10 μM S1P)": 52}
{"molecule": "CCOc1nc(Cc2ccc(Cl)cc2)nc2oc(-c3cccc(OCC(=O)N[C@@H](CO)C(=O)O)c3)nc12", "note": "[Example 297]", "% Activation (Edg-1 receptor activation in percent of the activation by 10 μM S1P)": 99}
{"molecule": "CCOc1nc(Cc2ccc(Cl)cc2)nc2oc(-c3cccc(OCC(=O)NCCC(=O)O)c3)nc12", "note": "[Example 298]", "% Activation (Edg-1 receptor activation in percent of the activation by 10 μM S1P)": 92}
{"molecule": "CCOc1nc(Cc2ccc(Cl)cc2)nc2oc(-c3cc(C)c(OCC(=O)NCCCNS(C)(=O)=O)c(C)c3)nc12", "note": "[Example 299]", "% Activation (Edg-1 receptor activation in percent of the activation by 10 μM S1P)": 94}
{"molecule": "CCOc1nc(Cc2ccc(Cl)cc2)nc2oc(-c3cc(C)c(OCC(O)CS(=O)(=O)c4nnc(C5CC5)[nH]4)c(C)c3)nc12", "note": "(stereo not shown) [Example 300]", "% Activation (Edg-1 receptor activation in percent of the activation by 10 μM S1P)": 89}
{"molecule": "CCOc1nc(Cc2ccc(Cl)cc2)nc2oc(-c3cc(C)c(OCC4(CO)COC4)c(C)c3)nc12", "note": "[Example 301]", "% Activation (Edg-1 receptor activation in percent of the activation by 10 μM S1P)": 97}
{"molecule": "CCOc1nc(Cc2ccc(Cl)cc2)nc2oc(-c3cccc(O)c3)nc12", "note": "[Example 302]", "% Activation (Edg-1 receptor activation in percent of the activation by 10 μM S1P)": 103}
{"molecule": "CCCOc1nc(CN2CC[C@@H](F)C2)nc2oc(-c3cccc(F)c3)nc12", "note": "[Example 303]", "% Activation (Edg-1 receptor activation in percent of the activation by 10 μM S1P)": 104}
{"molecule": "CCCOc1nc(CN2CCCC(C(F)(F)F)C2)nc2oc(-c3cccc(F)c3)nc12", "note": "(stereo not shown) [Example 304]", "% Activation (Edg-1 receptor activation in percent of the activation by 10 μM S1P)": 102}
{"molecule": "CCCOc1nc(Cc2ccc(Cl)cc2)nc2oc(-c3cc(C)c(OCC(O)CNC(=O)c4ccco4)c(C)c3)nc12", "note": "(stereo not shown) [Example 305]", "% Activation (Edg-1 receptor activation in percent of the activation by 10 μM S1P)": 103}
{"molecule": "CCCOc1nc(Cc2ccc(Cl)cc2)nc2oc(-c3cc(C)c(OCC(=O)N4CCOCC4)c(C)c3)nc12", "note": "[Example 306]", "% Activation (Edg-1 receptor activation in percent of the activation by 10 μM S1P)": 81}
{"molecule": "CCCOc1nc(Cc2ccc(Cl)cc2)nc2oc(-c3cc(C)c(OCC(=O)N4CCC[C@H]4C(=O)OC(C)(C)C)c(C)c3)nc12", "note": "[Example 307]", "% Activation (Edg-1 receptor activation in percent of the activation by 10 μM S1P)": 10}
{"molecule": "CCCOc1nc(Cc2ccc(Cl)cc2)nc2oc(-c3cc(C)c(OCC(O)CNC(=O)C4(O)CC4)c(C)c3)nc12", "note": "(stereo not shown) [Example 308]", "% Activation (Edg-1 receptor activation in percent of the activation by 10 μM S1P)": 107}
{"molecule": "CCOc1nc(CC2CCCCC2)nc2oc(-c3cccc(C)c3)nc12", "note": "[Example 309]", "% Activation (Edg-1 receptor activation in percent of the activation by 10 μM S1P)": 104}
{"molecule": "CCOc1nc(Cc2ccc(Cl)cc2)nc2oc(-c3cccc(OCC(=O)O)c3)nc12", "note": "[Example 310]", "% Activation (Edg-1 receptor activation in percent of the activation by 10 μM S1P)": 87}
{"molecule": "CCOc1nc(Cc2ccc(Cl)cc2)nc2oc(-c3cc(C)c(OCC(=O)N4CCC[C@H]4C(=O)O)c(C)c3)nc12", "note": "[Example 311]", "% Activation (Edg-1 receptor activation in percent of the activation by 10 μM S1P)": 78}
{"molecule": "CCCOc1nc(Cc2ccc(Cl)cc2)nc2oc(-c3cc(C)c(OCC(O)CNC4CCN(C)CC4)c(C)c3)nc12", "note": "(stereo not shown) [Example 313]", "% Activation (Edg-1 receptor activation in percent of the activation by 10 μM S1P)": 143}
{"molecule": "CCOc1nc(Cc2ccc(Cl)cc2)nc2oc(-c3cc(C)c(OCC(=O)NCCC(=O)O)c(C)c3)nc12", "note": "[Example 314]", "% Activation (Edg-1 receptor activation in percent of the activation by 10 μM S1P)": 96}
{"molecule": "CCCOc1nc(Cc2ccc(Cl)cc2)nc2oc(-c3cc(C)c(OCC4CC4)c(C)c3)nc12", "note": "[Example 315]", "% Activation (Edg-1 receptor activation in percent of the activation by 10 μM S1P)": 79}
{"molecule": "CCCOc1nc(Cc2ccc(Cl)cc2)nc2oc(-c3cc(C)c(OCC(=O)CC)c(C)c3)nc12", "note": "[Example 316]", "% Activation (Edg-1 receptor activation in percent of the activation by 10 μM S1P)": 70}
{"molecule": "CCCOc1nc(Cc2ccccc2)nc2oc(-c3cccc(OC)c3)nc12", "note": "[Example 317]", "% Activation (Edg-1 receptor activation in percent of the activation by 10 μM S1P)": 105}
{"molecule": "CCOc1nc(Cc2ccc(Cl)cc2)nc2oc(-c3cc(C)c(OCC(=O)N4CC[C@@H]5C[C@@]54C(=O)O)c(C)c3)nc12", "note": "[Example 318]", "% Activation (Edg-1 receptor activation in percent of the activation by 10 μM S1P)": 101}
